Measurements taken from US20070111265A1, “Ligands for mineralocorticoid receptor (MR) and methods for screening for or designing MR ligands” (Van Andel Research Institute, priority 2005, published 2007).
Like-named read-outs stand apart in the source and are kept apart here.

Key:
MR L848Q = target: T1, MR L848Q (Homo sapiens, UniProt P08235, L848Q); test: MMTV luciferase reporter assay in Cos-7 cells; assay type: cell-based
T1 construct: (S843P and L848Q) within the context of the full length wild type receptor; expressed in transfected cells; host or cells: Cos-7
T1 sequence (P08235 1-984 L848Q): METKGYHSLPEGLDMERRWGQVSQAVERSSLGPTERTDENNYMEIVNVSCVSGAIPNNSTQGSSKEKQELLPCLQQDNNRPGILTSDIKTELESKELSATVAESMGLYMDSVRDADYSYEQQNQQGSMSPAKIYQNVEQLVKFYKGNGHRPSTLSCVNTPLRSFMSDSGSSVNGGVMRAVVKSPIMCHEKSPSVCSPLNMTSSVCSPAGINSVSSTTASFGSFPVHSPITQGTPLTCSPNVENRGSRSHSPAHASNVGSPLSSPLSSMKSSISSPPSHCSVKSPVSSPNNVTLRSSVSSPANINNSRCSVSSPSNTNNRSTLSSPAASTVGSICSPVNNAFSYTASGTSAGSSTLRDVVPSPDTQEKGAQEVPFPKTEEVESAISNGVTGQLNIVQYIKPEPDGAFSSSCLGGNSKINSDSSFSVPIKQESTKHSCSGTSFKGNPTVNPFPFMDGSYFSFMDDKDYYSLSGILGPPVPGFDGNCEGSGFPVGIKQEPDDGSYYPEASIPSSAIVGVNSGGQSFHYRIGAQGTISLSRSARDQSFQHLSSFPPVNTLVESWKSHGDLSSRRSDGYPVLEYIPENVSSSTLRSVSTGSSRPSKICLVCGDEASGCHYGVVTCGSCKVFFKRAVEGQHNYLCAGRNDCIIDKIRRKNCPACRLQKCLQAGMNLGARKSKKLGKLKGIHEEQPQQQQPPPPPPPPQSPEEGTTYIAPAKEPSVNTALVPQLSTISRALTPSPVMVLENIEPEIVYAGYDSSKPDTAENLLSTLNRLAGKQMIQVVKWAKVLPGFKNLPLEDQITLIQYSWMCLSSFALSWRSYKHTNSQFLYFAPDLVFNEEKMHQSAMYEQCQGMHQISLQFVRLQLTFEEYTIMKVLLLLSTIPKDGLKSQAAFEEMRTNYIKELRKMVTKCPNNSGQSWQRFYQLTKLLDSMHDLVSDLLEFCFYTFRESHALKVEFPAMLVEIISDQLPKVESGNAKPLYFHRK
Experimental: (§1) Cos-7 cells were maintained in DMEM containing 10% fetal bovine serum (FBS) and were transiently transfected using Lipofectamine 2000 (Invitrogen). […] Cells were transfected in Opti-MEM with 400 ng of MMTV-Luc reporter plasmid and 400 ng of receptor expression vector (pRS vector) encoding full-length GR and MR respectively (ATCC). […] Luciferase data were normalized to Renilla activity as an internal control.
(§2) To validate the role of the key MR pocket residues in hormone recognition, the inventors mutated S843 and L848 to the corresponding GR residues (S843P and L848Q) within the context of the full length wild type receptor. […] We also performed reverse mutations in the full length GR receptor (P637S and Q642L) and tested them in the same MMTV reporter.

[1] = target: T2, wild type GR (full-length) (Homo sapiens, UniProt P04150); test: MMTV luciferase reporter assay in Cos-7 cells; assay type: cell-based
T2 sequence (P04150 1-777): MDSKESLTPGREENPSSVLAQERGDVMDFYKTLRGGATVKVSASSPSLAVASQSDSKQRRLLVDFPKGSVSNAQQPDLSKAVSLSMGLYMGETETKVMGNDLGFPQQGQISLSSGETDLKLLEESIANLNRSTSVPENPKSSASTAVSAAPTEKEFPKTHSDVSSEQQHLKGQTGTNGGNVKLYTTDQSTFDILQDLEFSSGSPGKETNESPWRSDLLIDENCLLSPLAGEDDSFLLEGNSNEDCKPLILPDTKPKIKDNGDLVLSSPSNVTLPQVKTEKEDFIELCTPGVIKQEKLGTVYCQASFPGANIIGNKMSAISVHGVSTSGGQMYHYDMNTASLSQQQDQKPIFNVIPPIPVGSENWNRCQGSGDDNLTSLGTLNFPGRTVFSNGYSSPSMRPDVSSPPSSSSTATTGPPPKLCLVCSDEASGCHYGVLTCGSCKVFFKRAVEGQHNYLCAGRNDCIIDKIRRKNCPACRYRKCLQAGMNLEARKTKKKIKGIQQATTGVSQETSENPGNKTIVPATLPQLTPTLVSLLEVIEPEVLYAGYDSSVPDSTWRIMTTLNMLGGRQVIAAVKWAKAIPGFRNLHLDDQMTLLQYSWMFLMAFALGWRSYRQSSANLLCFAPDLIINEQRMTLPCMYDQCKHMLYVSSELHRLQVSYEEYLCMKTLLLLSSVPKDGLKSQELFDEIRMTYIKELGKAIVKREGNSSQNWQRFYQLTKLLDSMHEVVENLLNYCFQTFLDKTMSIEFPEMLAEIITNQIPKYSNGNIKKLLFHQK
Experimental: as §1, §2

Compound	EC50 (MR L848Q; Cos-7, MMTV-Luc, read-out: EC50, activation of MR L848Q)	decrease of potency by L848Q mutation (MR L848Q; versus wild type MR)	EC50 ([1]; Cos-7, MMTV-Luc, read-out: EC50, activation of wild type GR)	EC50 ([1]; summary of FIG. 5 dose-response, read-out: affinity to GR (shown in FIG. 5))	activation of MR L848Q (MR L848Q; versus wild type MR)
C[C@]12C[C@H](O)[C@H]3[C@@H](CCC4=CC(=O)CC[C@@]43C)[C@@H]1CC[C@@H]2C(=O)CO [corticosterone]	~1 nM	at least 10 fold	~20 nM	~10 nM	–
C[C@]12CCC(=O)C=C1CC[C@@H]1[C@@H]2[C@@H](O)C[C@@]2(C)[C@H]1CC[C@]2(O)C(=O)CO [cortisol]	–	–	–	–	not affected
